Patent US20230365542A1, “Selective Agonists of 5-HT2A Receptor and Methods of Use” (Yale University, priority 2020, published 2023)
Like-named read-outs stand apart in the source and are kept apart here.

Legend:
5-HT2BR [1] = biological target: T1, 5-HT2BR (Homo sapiens, UniProt P41595); assay: 5-HT2BR binding affinity (Ki), Table 8
T1 construct: expressed in transfected cells; host or cells: Flp-In 293 T-Rex (tetracycline inducible)

5-HT2AR [2] = biological target: T2, 5-HT2AR (Homo sapiens, UniProt P28223); assay: Calcium flux assay (FLIPR, Fluo-4), 5-HT2AR stable cell line; assay type: cell-based; conditions: for 5-HT2AR Rmax ± S.E.M: value in parentheses
T2 construct: expressed in transfected cells; host or cells: Flp-In 293 T-Rex (tetracycline inducible)
T2 sequence (P28223 whole entry): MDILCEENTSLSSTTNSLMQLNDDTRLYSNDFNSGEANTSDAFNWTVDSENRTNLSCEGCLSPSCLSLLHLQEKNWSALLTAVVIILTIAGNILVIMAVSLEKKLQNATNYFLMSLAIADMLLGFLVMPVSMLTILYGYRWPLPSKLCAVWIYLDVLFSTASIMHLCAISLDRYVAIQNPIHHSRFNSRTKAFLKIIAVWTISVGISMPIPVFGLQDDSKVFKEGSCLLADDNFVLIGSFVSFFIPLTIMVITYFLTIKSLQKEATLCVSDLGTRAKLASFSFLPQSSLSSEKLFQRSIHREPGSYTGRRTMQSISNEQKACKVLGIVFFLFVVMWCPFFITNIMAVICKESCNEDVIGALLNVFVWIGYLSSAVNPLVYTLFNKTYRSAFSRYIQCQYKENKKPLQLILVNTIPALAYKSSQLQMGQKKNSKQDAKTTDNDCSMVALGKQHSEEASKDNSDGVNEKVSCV
Procedure: Stable cell lines for 5-HT2AR, 5-HT2BR and 5-HT2CR generated using the Flp-In 293 T-Rex Tetracycline inducible system (Invitrogen). Tetracycline-induced cells were seeded in 384-well poly-L-lysine plates at a density of 10,000 cells/well in DMEM containing 1% dialyzed FBS at least 16-24 hr before the calcium flux assay. On the day of the assay, the cells were incubated (20 ul/well) for 1 hr at 37° C. with Fluo-4 Direct dye (Invitrogen) reconstituted in FLIPR buffer (1×HBSS, 2.5 mM probenecid, and 20 mM HEPES, pH 7.4). After dye loading, cells were placed in a FLIPR^TETRA fluorescence imaging plate reader (Molecular Dynamics). Drug dilutions were prepared at 3× final concentration in drug buffer (1×HBSS, 20 mM HEPES, 0.1% BSA, 0.01% ascorbic acid, pH 7.4) and aliquoted into 384-well plates and placed in the FLIPR^TETRA for drug stimulation. The fluidics module and plate reader of the FLIPR^TETRA were programmed to read baseline fluorescence for 10s (1 read/s), then 10 ul of drug/well was added and read for 5 min (1 read/s). Fluorescence in each well was normalized to the average of the first 10 reads (i.e., baseline fluorescence). Then, the maximum-fold increase, which occurred within the first 60 s after drug addition, was determined and fold over baseline was plotted as a function of drug concentration. Data were normalized to % 5-HT stimulation and analyzed using “log(agonist) vs. response” in GraphPad Prism 9.0.

5-HT2AR [3] = biological target: T2, 5-HT2AR; assay: 5-HT2AR binding affinity (Ki), Table 8
5-HT2CR = biological target: T3, 5-HT2CR (Homo sapiens, UniProt P28335); assay: 5-HT2CR binding affinity (Ki), Table 8; conditions: read-out: 5-HT2CR Ki
T3 sequence (P28335 33-458): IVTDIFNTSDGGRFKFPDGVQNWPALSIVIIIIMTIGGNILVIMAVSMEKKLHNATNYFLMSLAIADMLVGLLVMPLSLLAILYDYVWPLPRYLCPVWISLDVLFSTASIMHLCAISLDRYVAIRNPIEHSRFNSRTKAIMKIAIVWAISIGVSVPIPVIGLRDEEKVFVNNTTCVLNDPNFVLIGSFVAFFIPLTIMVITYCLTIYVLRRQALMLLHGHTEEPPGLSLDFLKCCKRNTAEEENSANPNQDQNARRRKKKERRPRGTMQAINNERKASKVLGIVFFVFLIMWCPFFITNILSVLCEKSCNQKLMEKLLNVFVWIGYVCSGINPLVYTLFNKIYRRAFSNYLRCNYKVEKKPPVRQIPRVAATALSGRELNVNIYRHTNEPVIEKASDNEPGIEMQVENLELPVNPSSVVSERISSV

5-HT2BR [4] = biological target: T1, 5-HT2BR; assay: Calcium flux assay (FLIPR, Fluo-4), 5-HT2BR stable cell line; assay type: cell-based; conditions: for 5-HT2BR Rmax ± S.E.M: value in parentheses
Procedure: Stable cell lines for 5-HT2AR, 5-HT2BR and 5-HT2CR generated using the Flp-In 293 T-Rex Tetracycline inducible system (Invitrogen). Tetracycline-induced cells were seeded in 384-well poly-L-lysine plates at a density of 10,000 cells/well in DMEM containing 1% dialyzed FBS at least 16-24 hr before the calcium flux assay. On the day of the assay, the cells were incubated (20 ul/well) for 1 hr at 37° C. with Fluo-4 Direct dye (Invitrogen) reconstituted in FLIPR buffer (1×HBSS, 2.5 mM probenecid, and 20 mM HEPES, pH 7.4). After dye loading, cells were placed in a FLIPR^TETRA fluorescence imaging plate reader ([…]). Drug dilutions were prepared at 3× final concentration in drug buffer (1×HBSS, 20 mM HEPES, 0.1% BSA, 0.01% ascorbic acid, pH 7.4) and aliquoted into 384-well plates and placed in the FLIPR^TETRA for drug stimulation. The fluidics module and plate reader of the FLIPR^TETRA were programmed to read baseline fluorescence for 10s (1 read/s), then 10 ul of drug/well was added and read for 5 min (1 read/s). Fluorescence in each well was normalized to the average of the first 10 reads (i.e., baseline fluorescence). Then, the maximum-fold increase, which occurred within the first 60 s after drug addition, was determined and fold over baseline was plotted as a function of drug concentration. Data were normalized to % 5-HT stimulation and analyzed using “log(agonist) vs. response” in GraphPad Prism 9.0.

[5] = bracketed value below Ki, read-out: 5-HT2BR pKi ± S.E.M (converted)
[6] = bracketed value below Ki, read-out: 5-HT2AR pKi ± S.E.M (converted)
[7] = bracketed value below EC50, read-out: 5-HT2AR pEC50 ± S.E.M (converted)
[8] = bracketed value below EC50, read-out: 5-HT2BR pEC50 ± S.E.M (converted)

T1 sequence (P41595 whole entry): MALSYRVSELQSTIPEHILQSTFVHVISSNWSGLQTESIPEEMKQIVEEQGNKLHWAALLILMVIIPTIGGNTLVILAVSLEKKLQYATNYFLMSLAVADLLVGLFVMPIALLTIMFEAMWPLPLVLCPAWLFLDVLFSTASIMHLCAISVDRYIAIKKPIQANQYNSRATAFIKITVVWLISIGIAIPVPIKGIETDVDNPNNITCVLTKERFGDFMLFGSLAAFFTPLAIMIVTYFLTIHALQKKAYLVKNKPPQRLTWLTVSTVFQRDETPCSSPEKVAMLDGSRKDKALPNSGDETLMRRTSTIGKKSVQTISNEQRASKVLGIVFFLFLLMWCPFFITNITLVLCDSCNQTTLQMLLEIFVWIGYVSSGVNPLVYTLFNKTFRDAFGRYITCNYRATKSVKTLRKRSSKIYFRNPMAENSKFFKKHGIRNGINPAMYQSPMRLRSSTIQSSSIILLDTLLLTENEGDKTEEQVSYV

Row | Structure (SMILES) | Ki (5-HT2BR [1]; [5]) [nM] | EC50 (5-HT2AR [2]; read-out: 5-HT2AR EC50) [µM] | 5-HT2AR Rmax ± S.E.M (5-HT2AR [2]) | Ki (5-HT2AR [3]; [6]) [µM] | Ki (5-HT2AR [3]; read-out: 5-HT2AR Ki) [µM] | Ki (5-HT2CR) [µM] | 5-HT2BR EC50 (5-HT2BR [4]) | Ki (5-HT2BR [1]; read-out: 5-HT2BR Ki) [nM] | EC50 (5-HT2AR [2]; [7]) [µM] | EC50 (5-HT2BR [4]; [8]) [nM] | 5-HT2BR Rmax ± S.E.M (5-HT2BR [4]) | EC50 (5-HT2BR [4]; read-out: 5-HT2BR EC50) [nM]
1 | C[C@H]1C=C(c2cncc(Cl)c2)CN(C)C1 (stereo in doubt) [Compound 18, 5′-chloro-1,5-dimethyl-1,2,5,6-tetrahydro-3,3′-bipyridine] | 138 | 0.87 | (13.7% | 3.16 | 3.21 | > 10 | antagonist | – | – | – | – | –
2 | C[C@@H]1C=C(c2cncc(Cl)c2)CN(CC2(O)COC2)C1 [Compound 7, 3-((5′-Chloro-5-methyl-5,6-dihydro-[3,3′-bipyridin]-1(2H)-yl)methyl)oxetan-3-ol] | – | > 10 | – | – | > 10 | > 10 | antagonist | 960 | – | – | – | –
3 | CCCCCN1CC(c2cncc(Cl)c2)=C[C@@H](C)C1 [Compound 9, 5′-chloro-5-methyl-1-pentyl-1,2,5,6-tetrahydro-3,3′-bipyridine] | 550 | 7.63 | (40.2% | – | > 10 | > 10 | antagonist | 560 | 7.76 | – | – | –
4 | CCCCN1CC(c2cncc(Cl)c2)=C[C@@H](C)C1 [Compound 11, 1-butyl-5′-chloro-5-methyl-1,2,5,6-tetrahydro-3,3′-bipyridine] | 372 | 4.24 | (25.0% | – | > 10 | > 10 | antagonist | – | – | – | – | –
5 | CCCCN1CC(c2cncc(Cl)c2)=C[C@H](C)C1 [Compound 12, 1-butyl-5′-chloro-5-methyl-1,2,5,6-tetrahydro-3,3′-bipyridine] | 7.08 | – | (53.0% | – | 4.54 | > 10 | – | – | 0.427 | 22.9 | (69.6% | –
6 | CCCCN1CC(c2cncc(C)c2)=C[C@@H](C)C1 [Compound 13, 1-Butyl-5,5′-dimethyl-1,2,5,6-tetrahydro-3,3′-bipyridine] | – | > 10 | – | – | > 10 | > 10 | antagonist | 580 | – | – | – | –
7 | CCCN1CC(c2cncc(Cl)c2)=C[C@@H](C)C1 [Compound 15, 5′-Chloro-5-methyl-1-propyl-1,2,5,6-tetrahydro-3,3′-bipyridine] | 148 | 5 | (42.1% | – | > 10 | > 10 | – | – | – | 123 | (50.9% | 130
8 | C[C@@H]1C=C(c2cncc(Cl)c2)CN(CCC2CCCC2)C1 [Compound 19, 5′-chloro-1-(2-cyclopentylethyl)-5-methyl-1,2,5,6-tetrahydro-3,3′-bipyridine] | – | 4.31 | (34.9% | – | > 10 | > 10 | antagonist | 570 | – | – | – | –
9 | C[C@H]1C=C(c2cncc(Cl)c2)CN(CCC2CCCC2)C1 [Compound 20, 5′-chloro-1-(2-cyclopentylethyl)-5-methyl-1,2,5,6-tetrahydro-3,3′-bipyridine] | 10.7 | 0.54 | (49.1% | – | 4.36 | > 10 | – | – | – | – | (66.2% | 85
10 | CCCCN1CC(c2c[nH]c3ncccc23)=C[C@@H](C)C1 [Compound 21, 3-(1-butyl-5-methyl-1,2,5,6-tetrahydropyridin-3-yl)-1H-pyrrolo[2,3-b]pyridine] | 4570 | 2.16 | (12.8% | – | 2.19 | > 10 | antagonist | 2920 | – | – | – | –
11 | CCCN1CC(c2c[nH]c3ncccc23)=C[C@@H](C)C1 [Compound 23, 3-(5-methyl-1-propyl-1,2,5,6-tetrahydropyridin-3-yl)-1H-pyrrolo[2,3-b]pyridine] | 1660 | – | (65.6% | 1.2 | 1.22 | > 10 | antagonist | 1640 | 0.245 | – | – | –
12 | CCCN1CC(c2c[nH]c3ncccc23)=C[C@H](C)C1 [Compound 24, 3-(5-methyl-1-propyl-1,2,5,6-tetrahydropyridin-3-yl)-1H-pyrrolo[2,3-b]pyridine] | – | 0.86 | (14.8% | – | > 10 | > 10 | antagonist | 1670 | 0.871 | – | – | –
13 | C[C@@H]1C=C(c2c[nH]c3ncccc23)CN(CC2(C)COC2)C1 [compound 25, (R)-3-(5-methyl-1-((3-methyloxetan-3-yl)methyl)-1,2,5,6-tetrahydropyridin-3-yl)-1H-pyrrolo[2,3-b]pyridine] | – | 4 | (29.5% | – | > 10 | > 10 | – | 3290 | – | – | (44.6% | 6380
14 | C[C@H]1C=C(c2c[nH]c3ncccc23)CN(CC2(C)COC2)C1 [compound 26, (S)-3-(5-methyl-1-((3-methyloxetan-3-yl)methyl)-1,2,5,6-tetrahydropyridin-3-yl)-1H-pyrrolo[2,3-b]pyridine] | 5750 | > 10 | – | – | > 10 | > 10 | – | 5830 | – | 9120 | (71.0% | 9230
15 | C[C@@H]1C=C(c2c[nH]c3ncccc23)CN(C2COC2)C1 [compound 27, (R)-3-(5-methyl-1-(oxetan-3-yl)-1,2,5,6-tetrahydropyridin-3-yl)-1H-pyrrolo[2,3-b]pyridine] | – | > 10 | – | – | > 10 | > 10 | antagonist | > 10000 | – | – | – | –
16 | C[C@H]1C=C(c2c[nH]c3ncccc23)CN(C2COC2)C1 [compound 28, (S)-3-(5-methyl-1-(oxetan-3-yl)-1,2,5,6-tetrahydropyridin-3-yl)-1H-pyrrolo[2,3-b]pyridine] | 9770 | > 10 | – | – | > 10 | > 10 | – | 9890 | – | – | (48.1% | 5240
